{"source": "patent US20120071544A1", "about": "“Methods For Identifying Compounds Effective To Increase The Expression Or Activity Of Aspartyl Aminopeptidase In Mammalian Pancreatic Islet Cells, And Methods For Decreasing Angiotensin II Levels In Mammalian Pancreatic Islet Cells” (priority 2010, published 2012)", "key": {"Angiotensin II (1-8)": {"target": "Angiotensin II (1-8)", "test": "cell-based or functional assay"}, "DAP": {"tested_on": "DAP", "test": "DAP protein level in transfected MIN6 cells by Western blot", "format": "cell-based, mouse", "details": "48 hours culture, Western blots", "experimental": "(§1) The DAP gene was either knocked down with DAP RNAi construct or overexpressed by transient transfection of DAP-pCMV in MIN6 cells.\n(§2) The full-length DAP construct or the control vector was transfected into MIN6 cells. After culturing for 48 hours, MIN6 cells and the culture media were harvested for measurement of DAP and Ang II levels. Higher expression level of DAP (2.1-fold±0.6) in DAP-pCMV-transfected MIN6 cells compared to that in the vector-transfected cells was detected by Western blots. Ang II levels in MIN6 cell lysates and the cultured media were measured after the transfection and compared to the control transfected cells. Ang II-specific ELISA kit (Cayman Chemical) was used for the measurements.\n(§3) The cells were transfected with […] of Dnpep siRNA of SEQ ID NO. 13, non-silencing control siRNA, or a full-length of Dnpep cDNA (SEQ ID NO. 12) in pCMV-SPORT6 (Open Biosystems, Huntsville, Ala.) by electroporation (BioRad Laboratories, Berkeley, Calif.). A total of 1×10^5 of the cells was seeded into 6-well culture plates coated with poly-L-lysine and cultured for 24 h. The transfection efficiency was approximately 50 percent according to a co-transfected GFP marker.\nAfter 48 hours culture, cells and culture media were collected. […]"}, "[1]": {"tested_on": "Ang II levels in MIN6 cells", "test": "Ang II levels in MIN6 cell lysates and cultured media by Ang II ELISA", "format": "cell-based, mouse", "experimental": "as §1, §2, §3\n(§4) After 48 hours culture, cells and culture media were collected. Real-time PCR (RT-PCR) was conducted with the primers (Assay ID Details: Mm00497488_m1*) and the 7900HT Fast Real-Time PCR System (Applied Biosystems, Foster City, Calif.). Western blots were performed using the ECL Reagents (GE, Piscataway, N.J.).\nAng II levels were measured using the AssayMax Ang II ELISA Kit (Cayman Chemical, Ann Arbor, Mich.). Briefly, standards or samples were incubated in a 96-well plate with biotinylated anti-Ang II antibody for 2 h. After the washings, Streptavidin-Peroxidase Conjugate was added for 30 min. The final reaction was developed with the substrate chromogen and read at 450 nm by an ELISA reader. Ang II levels in the samples were calculated from an Ang II standard curve run with each assay. Values (mean±SEM) are from at least three independent experiments. ANOVA with Tukey's post hoc test was used for statistical analysis."}, "DAP mRNA": {"tested_on": "DAP mRNA", "test": "DAP mRNA level in transfected MIN6 cells by RT-PCR", "format": "cell-based, mouse", "details": "48 hours culture", "experimental": "It was also investigated whether endogenous DAP levels affect the Ang II levels. Dnpep siRNA and control siRNA were purchased (Qiagen, Germantown, Md.). The target sequences were nucleotides 328-348 (SEQ ID NO. 11:\n[…]) of mouse Dnpep cDNA (GenBank NM_001110831; SEQ ID NO. 12). MIN6 cells were maintained in DMEM, supplemented with 10% FCS, 10 mM glucose, 2 mmol/l glutamine, 100 U/ml penicillin, and 0.1 mg/ml streptomycin.\nas §3, §4"}}}
{"substance": "aspartyl aminopeptidase (DAP), mouse, gene product of Dnpep (from UniProt Q9Z2W0 1-473) (enzyme)", "values": [{"measurement": "extracellular Ang II level in DAP RNAi-transfected MIN6 cells against control cells (Ang II ELISA) (percent increase)", "setting": "Angiotensin II (1-8)", "value": 57}, {"measurement": "extracellular Ang II level in DAP-transfected MIN6 cells against control cells (Ang II ELISA) (percent lower)", "setting": "Angiotensin II (1-8)", "value": 35}, {"measurement": "intracellular Ang II level in DAP RNAi-transfected MIN6 cells against control cells (Ang II ELISA) (percent increase)", "setting": "Angiotensin II (1-8)", "value": 74}, {"measurement": "intracellular Ang II level in DAP-transfected MIN6 cells against vector-treated cells (Ang II ELISA) (percent lower)", "setting": "Angiotensin II (1-8)", "value": 28}]}
{"substance": "DAP RNAi: Dnpep siRNA (Qiagen, SEQ ID NO. 13) targeting nucleotides 328-348 of mouse Dnpep cDNA (AATGTGGCCTGGATGGCCTCT; listed as DNA, chemistry not given here; the letters are possibly those of the target site; listed as Mus musculus)", "values": [{"measurement": "DAP protein level decrease compared to control cells", "setting": "DAP", "value": 70, "unit": "%"}, {"measurement": "Intracellular Ang II levels", "setting": "[1]; MIN6 cell lysates, 48 hours after transfection, mean±SEM", "value": "50±6", "unit": "pg/mg protein"}, {"measurement": "Intracellular Ang II levels, increase compared to control cells", "setting": "[1]; MIN6 cell lysates, 48 hours culture", "value": "up to 74%"}, {"measurement": "Extracellular Ang II levels, increase compared to control cells", "setting": "[1]; MIN6 culture media, 48 hours culture", "value": 57, "unit": "%"}, {"measurement": "Extracellular Ang II levels", "setting": "[1]; MIN6 cultured media, 48 hours after transfection, mean±SEM", "value": "52±5.3", "unit": "pg/mg protein"}, {"measurement": "Endogenous DAP mRNA level knocked down", "setting": "DAP mRNA", "value": 78, "unit": "%"}]}
